Assays:
[1] = The drug is tested on Z-027 corresponding to metagenome with ENA study accession number: PRJEB37062 and ENA sample accession number: ERS12561826 for biotransformation under anaerobic condition. The drug concentrations were measured over 9 timepoints collected between 0 and 24 hours of incubation by liquid-chromatography-coupled mass spectrometry (LC–MS); conditions: 2 µM
[2] = The drug is tested on Z-013 corresponding to rabbit gut metagenome with ENA study accession number: PRJEB37062 and ENA sample accession number: ERS12561813 for biotransformation under anaerobic condition. The drug concentrations were measured over 9 timepoints collected between 0 and 24 hours of incubation by liquid-chromatography-coupled mass spectrometry (LC–MS); conditions: 2 µM
[3] = The drug is tested on Z-011 corresponding to mouse gut metagenome with ENA study accession number: PRJEB37062 and ENA sample accession number: ERS12561811 for biotransformation under anaerobic condition. The drug concentrations were measured over 9 timepoints collected between 0 and 24 hours of incubation by liquid-chromatography-coupled mass spectrometry (LC–MS); conditions: 2 µM
[4] = The drug is tested on Z-010 corresponding to metagenome with ENA study accession number: PRJEB37062 and ENA sample accession number: ERS12561810 for biotransformation under anaerobic condition. The drug concentrations were measured over 9 timepoints collected between 0 and 24 hours of incubation by liquid-chromatography-coupled mass spectrometry (LC–MS); conditions: 2 µM
[5] = The drug is tested on Z-009 corresponding to pig gut metagenome with ENA study accession number: PRJEB37062 and ENA sample accession number: ERS12561809 for biotransformation under anaerobic condition. The drug concentrations were measured over 9 timepoints collected between 0 and 24 hours of incubation by liquid-chromatography-coupled mass spectrometry (LC–MS); conditions: 2 µM
[6] = The drug is tested on Z-006 corresponding to mouse gut metagenome with ENA study accession number: PRJEB37062 and ENA sample accession number: ERS12561806 for biotransformation under anaerobic condition. The drug concentrations were measured over 9 timepoints collected between 0 and 24 hours of incubation by liquid-chromatography-coupled mass spectrometry (LC–MS); conditions: 2 µM
[7] = The drug is tested on Z-005 corresponding to metagenome with ENA study accession number: PRJEB37062 and ENA sample accession number: ERS12561805 for biotransformation under anaerobic condition. The drug concentrations were measured over 9 timepoints collected between 0 and 24 hours of incubation by liquid-chromatography-coupled mass spectrometry (LC–MS); conditions: 2 µM
[8] = The drug is tested on WLS-370 corresponding to human gut metagenome with ENA study accession number: PRJEB37062 and ENA sample accession number: ERS12561793 for biotransformation under anaerobic condition. The drug concentrations were measured over 9 timepoints collected between 0 and 24 hours of incubation by liquid-chromatography-coupled mass spectrometry (LC–MS); conditions: 2 µM
[9] = The drug is tested on WLS-220 corresponding to human gut metagenome with ENA study accession number: PRJEB37062 and ENA sample accession number: ERS12561769 for biotransformation under anaerobic condition. The drug concentrations were measured over 9 timepoints collected between 0 and 24 hours of incubation by liquid-chromatography-coupled mass spectrometry (LC–MS); conditions: 2 µM
[10] = The drug is tested on WLS-073 corresponding to human gut metagenome with ENA study accession number: PRJEB37062 and ENA sample accession number: ERS12561749 for biotransformation under anaerobic condition. The drug concentrations were measured over 9 timepoints collected between 0 and 24 hours of incubation by liquid-chromatography-coupled mass spectrometry (LC–MS); conditions: 2 µM
[11] = human gut metagenome, 24 h, 2 µM
[12] = human gut metagenome, 24 h, 2 µM; remark: listed apart in the source
[13] = human gut metagenome, 24 h, 2 µM; remark: listed apart in the source
[14] = human gut metagenome, 24 h, 2 µM; remark: listed apart in the source
[15] = human gut metagenome, 24 h, 2 µM; remark: listed apart in the source
[16] = human gut metagenome, 24 h, 2 µM; remark: listed apart in the source
[17] = human gut metagenome, 24 h, 2 µM; remark: listed apart in the source
[18] = human gut metagenome, 24 h, 2 µM; remark: listed apart in the source
[19] = human gut metagenome, 24 h, 2 µM; remark: listed apart in the source
[20] = human gut metagenome, 24 h, 2 µM; remark: listed apart in the source
Further: call rule not given here.

Row | Structure (SMILES) | Bacterial Biotransformation [1] | Bacterial Biotransformation [2] | Bacterial Biotransformation [3] | Bacterial Biotransformation [4] | Bacterial Biotransformation [5] | Bacterial Biotransformation [6] | Bacterial Biotransformation [7] | Bacterial Biotransformation [8] | Bacterial Biotransformation [9] | Bacterial Biotransformation [10] | Bacterial Biotransformation [11] | Bacterial Biotransformation [12] | Bacterial Biotransformation [13] | Bacterial Biotransformation [14] | Bacterial Biotransformation [15] | Bacterial Biotransformation [16] | Bacterial Biotransformation [17] | Bacterial Biotransformation [18] | Bacterial Biotransformation [19] | Bacterial Biotransformation [20]
1 | OC(Cn1cncn1)(Cn1cncn1)c1ccc(F)cc1F [FLUCONAZOLE] | Compound NOT metabolized | Compound NOT metabolized | Compound NOT metabolized | Compound NOT metabolized | Compound NOT metabolized | Compound NOT metabolized | Compound NOT metabolized | Compound NOT metabolized | Compound NOT metabolized | Compound NOT metabolized | Compound NOT metabolized | Compound NOT metabolized | Compound NOT metabolized | Compound metabolized | Compound NOT metabolized | Compound metabolized | Compound NOT metabolized | Compound metabolized | Compound NOT metabolized | Compound NOT metabolized
2 | CNCCC(Oc1ccc(C(F)(F)F)cc1)c1ccccc1 (stereo not given) [FLUOXETINE] | Compound NOT metabolized | Compound NOT metabolized | Compound NOT metabolized | Compound NOT metabolized | Compound NOT metabolized | Compound NOT metabolized | Compound NOT metabolized | Compound metabolized | Compound NOT metabolized | Compound NOT metabolized | Compound NOT metabolized | Compound metabolized | Compound NOT metabolized | Compound NOT metabolized | Compound NOT metabolized | Compound NOT metabolized | Compound NOT metabolized | Compound metabolized | Compound NOT metabolized | Compound NOT metabolized
3 | O=C(CCCN1CCC(O)(c2ccc(Cl)cc2)CC1)c1ccc(F)cc1 [HALOPERIDOL] | Compound NOT metabolized | Compound NOT metabolized | Compound NOT metabolized | Compound NOT metabolized | Compound metabolized | Compound NOT metabolized | Compound NOT metabolized | Compound NOT metabolized | Compound metabolized | Compound NOT metabolized | Compound NOT metabolized | Compound NOT metabolized | Compound NOT metabolized | Compound NOT metabolized | Compound NOT metabolized | Compound metabolized | Compound NOT metabolized | Compound metabolized | Compound NOT metabolized | Compound NOT metabolized
4 | CCCCC1=NC2(CCCC2)C(=O)N1Cc1ccc(-c2ccccc2-c2nnn[nH]2)cc1 [IRBESARTAN] | Compound NOT metabolized | Compound NOT metabolized | Compound NOT metabolized | Compound metabolized | Compound metabolized | Compound metabolized | Compound metabolized | Compound metabolized | Compound metabolized | Compound metabolized | Compound metabolized | Compound metabolized | Compound metabolized | Compound metabolized | Compound NOT metabolized | Compound metabolized | Compound metabolized | Compound metabolized | Compound metabolized | Compound metabolized
5 | NC(CO)(CO)CO.O=C(c1ccccc1)c1ccc2n1CCC2C(=O)O (stereo not given) [KETOROLAC TROMETHAMINE] | Compound metabolized | Compound NOT metabolized | Compound NOT metabolized | Compound metabolized | Compound NOT metabolized | Compound NOT metabolized | Compound metabolized | Compound metabolized | Compound metabolized | Compound metabolized | Compound metabolized | Compound metabolized | Compound metabolized | Compound metabolized | Compound NOT metabolized | Compound metabolized | Compound metabolized | Compound metabolized | Compound metabolized | Compound metabolized
6 | CC[C@H](C)C(=O)O[C@H]1C[C@@H](C)C=C2C=C[C@H](C)[C@H](CC[C@@H]3C[C@@H](O)CC(=O)O3)[C@H]21 [LOVASTATIN] | Compound NOT metabolized | Compound NOT metabolized | Compound metabolized | Compound NOT metabolized | Compound NOT metabolized | Compound NOT metabolized | Compound NOT metabolized | Compound NOT metabolized | Compound NOT metabolized | Compound NOT metabolized | Compound NOT metabolized | Compound NOT metabolized | Compound NOT metabolized | Compound NOT metabolized | Compound NOT metabolized | Compound NOT metabolized | Compound NOT metabolized | Compound NOT metabolized | Compound NOT metabolized | Compound NOT metabolized

— ChEMBL document CHEMBL5724914, “Linking interpersonal differences in gut microbiota composition and drug biotransformation activity” (2024)
